Experimental data taken from EP0013786A1, “Imidazole derivatives, pharmaceutical compositions containing them and their preparation” (SYNTEX (U.S.A.) INC., priority 1979, dated 1980).

System: not listed separately
Experiment: Acute oral toxicity in mice
Conditions: mouse, in vivo; single oral dose by stomach tube, aqueous carboxymethyl cellulose vehicle, observed for three weeks
Procedure: The following example illustrates acute oral toxicity of a representative compound.
Protocol: The test compound, l-[2-(2-naphthyl)-2-(methoxy)ethyl'imidazole hydrochloride, is suspended in an aqueous carboxymethyl cellulose suspending vehicle. Concentrations are adjusted so that doses can be given in volumes of 10 ml./kg. body weight. Groups of mice comprising six Swiss-Webster male mice in each group are used. A single oral dose, by stomach tube, of a final dosage of test compound is administered to the mice in each group. Each group receives a different dosage, one group serving as a control. After administration the mice are observed for a three week period.

With `COC(Cn1ccnc1)c1ccc2ccccc2c1.Cl` (stereo not drawn) [1-[2-(2-naphthyl)-2-(methoxy)ethyl]imidazole hydrochloride] as the compound, how does the LD50 at 504 h read?
The LD50 at 504 h was ~100 mg/kg.

System: male Hilltop ICR-derived mice
Experiment: Maximal electroshock test in mice
Type: in vivo
Conditions: Mus musculus, ip, 0.25 h; dosed intraperitoneally in saline 15 minutes prior to transcorneal maximal electroshock (50 milliamps, 0.2 seconds); antagonism of tonic extension; read-out: ED50 (95% confidence limits)
Procedure: This test was performed in the standard manner, essentially as described by Swinyard et al., J. Pharm. Exp. Ther., Vol. 106, pp. 319-330 (1952). Groups of 8-10 male Hilltop ICR-derived mice weighing 20-30 grams were dosed intraperitoneally with a solution or suspension of drug in saline 15 minutes prior to a transcorneal maximal electroshock (50 milli- amps, 0.2 seconds). […] An active compound was capable of antagonizing the occurrence of the tonic extension which occurred immediately after the electroshock.

Which ED50 does the source give for `CSC(Cn1ccnc1)c1ccc2ccccc2c1` (stereo not drawn) [1-[2-(2-naphthyl)-2-(methylthio)ethyl]imidazole] here?
The ED50 was 37.1 mg/kg.

Which ED50 does the source give for `COC(Cn1ccnc1)c1cccc2ccccc12` (stereo not drawn) [1-[2-(1-naphthyl)-2-(methoxy)ethyl]imidazole] here?
Its ED50 is 19.4 mg/kg.

Which ED50 does the source give for `Cl.Clc1ccc(OC(Cn2ccnc2)c2ccc3ccccc3c2)cc1` (stereo not drawn) [1[2-(2-naphthyl)-2-(4-chlorophenoxy)ethyl]imidazole hydrochloride] here?
Its ED50 is 46.3 mg/kg.

For `COC(Cn1ccnc1)c1ccc2ccccc2c1.Cl` (stereo not drawn) [1-[2-(2-naphthyl)-2-(methoxy)ethyl]imidazole hydrochloride], which ED50 is on record?
Its ED50 is 10.4 mg/kg.

Which ED50 does the source give for `c1ccc(OC(Cn2ccnc2)c2ccc3ccccc3c2)cc1` (stereo not drawn) [1-[2-(2-naphthyl)-2-(phenoxy)ethyl]imidazole] here?
Its ED50 is 15.1 mg/kg.

With `CCCCOC(Cn1ccnc1)c1cccc2ccccc12` (stereo not drawn) [1-[2-(1-naphthyl)-2-(n-butoxy)ethyl]imidazole] as the compound, how does the ED50 read?
The ED50 was 16 mg/kg.

For `CCOC(Cn1ccnc1)c1ccc2ccccc2c1` (stereo not drawn) [1-[2-(2-naphthyl)-2-(ethoxy)ethyl]imidazole], which ED50 is on record?
Its ED50 is 11.4 mg/kg.

Which ED50 does the source give for `Cc1ccccc1OC(Cn1ccnc1)c1ccc2ccccc2c1` (stereo not drawn) [1-[2-(2-naphthyl)-2-(2-methylphenoxy)ethyl]imidazole] here?
Its ED50 is 32.6 mg/kg.
